In US6337316B1, “Pharmaceutical compositions thereof, and methods of using same” (Applied Research Systems ARS Holding N.V., priority 1997, dated 2002):
Bridge positions count the residues as written; N and C are the ends. Ends that are not written are not given here.

Key:
[1] = system: murine MLR splenocyte proliferation; test: One-way murine MLR (C57Bl/6 stimulators, BalB/c responders); format: cell-based, mouse; conditions: peptides tested 100 μM to 1.56 μM (FIG. 9)
Description: One-way murine MLRs were set up using the C57Bl/6 mice splenocytes as stimulators and BalB/c splenocytes as responders.
Spleens were excised from mice (Jackson Laboratories, Bar Harbor, Ma.) 6-8 weeks of age. Cells were separated from the capsule using sterile frosted glass slides and washed in cold RPMI 1640 1×. Red blood cells were lysed by treating the spleen cell suspension with cold Tris ammonium chloride buffer (2 ml/spleen) for 3 min on ice. After lysis, the cells were washed 2× in 5 volumes of complete medium (RPMI 1640 containing 10 % heat-inactivated FBS, 2 mM glutamine, 50 μM 2-mercaptoethanol, 100 U/ml penicillin-100 μg/ml strepcomycin, 1 mM sodium pyruvate and 1 mM non-essential amino acids).
Plastic-adherent cells were removed from splenocytes of BalB/c mice by adjusting the cell concentration to 3×10^6 cells/ml in complete medium and incubating the cells for 1.5-2 h at 37° C. in T-75 flasks. Following incubation non-adherent cells were collected by gently washing the flasks and the percent recovery determined (60-70%). Bal b/C responder cells were stored on ice until mitomycin C treatment of stimulator cells was completed.
Following RBC lysis splenocytes of C57Bl/6 mice were adjusted to 2-4×10^6 cells/ml in complete medium and treated with mitomycin C (50 μg/ml) for 30 min at 37° C. in a humidified 5% CO2 in air atmosphere. Following treatment, cells were washed with 5 volumes of complete medium 3×, and viable counts determined using trypan blue.
To set up autologous stimulation controls some responder cells were also treated with mitomycin C as mentioned above.
For the assay, responder and stimulator cells were plated at 10^5 cells/well in 96-well round bottom plates. […]
Appropriate scrambled peptide controls and matrix controls were included in every assay. […] Proliferation of the cells was determined by pulsing the wells with 3H-Tdr (1 μCi/well) For the last 6 h of the assay. Plates were harvested and the counts incorporated determined as described above.

[2] = system: lymphocyte proliferation in the human MLR; format: cell-based; conditions: for effect on the human MLR in combination with CTLA-4Ig: CTLA-4Ig spiked in at 0.5 μg/ml (FIG. 8); for Human MLR (ability to inhibit lymphocyte proliferation, cpm): peptide 12.5 to 100 μM, assays of 1/24, 1/31, 3/6, 4/17, 5/2, one symbol per assay
Description: Whole blood from donors was obtained from Interstate Blood Bank, Memphis, Tenn. Blood specimens were handled in a biosafety level 2 containment facility as recommended for potentially infectious blood specimens in the CDC/NIH manual Biosafety in Microbiological and Biomedical Laboratories; 3rd edition, 1993, page 10. Peripheral blood mononuclear cells (PBMC) were separated from red blood cells and granulocytes by ficoll-hypaque purification. Whole peripheral blood was diluted 1:2 in PBS and 30 ml was overlayed onto 15 ml of ficoll-hypaque in 50 ml polypropylene tubes. The tubes were spun at 400×g for 30 min at 25° C. Following centrifugation, the interface between the upper plasma layer and the lower ficoll layer was collected, cells washed in RPMI-1640 2×, and viable counts determined using trypan blue. Cells to be used as responders in the assay were stored on ice until mitomycin C treatment of stimulator cells was completed.
PBMC, isolated as described above, to be used as stimulators in the assay were adjusted to 2-4×10^6 cells/ml in complete medium (RPMI 1640 containing 10% heat-inactivated human AB serum, 2 mM glutamine, 50 μM 2-mercaptoethanol and 100 U/ml penicillin-100 μg/ml streptomycin), and treated with mitomycin C (25 μg/ml) for 30 min in a 37° C. water bath. Following treatment, cells were washed with S volumes of complete medium 3×, and viable counts determine using trypan blue. To set up autologous stimulation controls some responder cells were also treated with mitomycin C as mentioned above.
Purified CTLA-4Ig fusion protein was produced, as described in Steurer et al. 1995, from a NS-1 cell line kindly donated by Dr. T. Strom (Beth Israel Hospital, Boston, Mass.) as a 1 mg/ml solution in sterile PBS. The protein was stored frozen at −80° C. Upon thawing, the aliquot was stored at 4° C. Purified peptides were lyophilized according to known procedures. Peptides were reconstituted in sterile PBS, pH 7.4 at 2 mM concentration, aliquoted in microfuge cubes and stored frozen at −20° C. For the assay, an aliquot of the peptide was thawed and diluted to 200 μM in complete medium.
For the one-way allogeneic mixed lymphocyte response (MLR) assay, responder cells were plated at 10^6 cells/well, and stimulator cells at 5×10^4 cells/well in 96-well round bottom plates. Cells were incubated with serial dilutions of the anti-CD4 Ab Leu 3A (1 μg/ml-0.06 μg/ml) in triplicate, or an isotype-matched control Ab. Cyclosporin A at 1 μg/ml was used as an additional control.
CTLA-4 Ig was serially diluted an.4 tested from 10 μg/ml to 0.15 μg/ml. Peptides were tested either directly or in the presence of a constant spiked-in dose of CTLA-4 Ig at 0.5 μg/ml. The plates were incubated at 37° C. in a humidified 5% CO2 atmosphere for 7 days.
Proliferation of the cells was determined by pulsing the wells with ^3H-Tdr (1 μCi/well) for the last 18 h of the assay. Plates were harvested using a Tomtec -late harvester and the counts incorporated determined using a Wallac microbetaplate plus reader.
A total of 34 peptides were tested for inhibition of lymphocyte proliferation in the human MLR. Each peptide was tested in a MLR at doses ranging from 12.5 to 100 μM. The activity of each peptide was identified by assigning a + and − tone peptide depending on its ability to inhibit lymphocyte proliferation in the MLR (cpms).

[3] = system: binding of CTLA-4Ig to B7 on Cess B cells; test: CTLA-4Ig/B7 binding assay on Cess B cells by FACS; conditions: FACS; assays of 3/24, 3/25, 4/5, 4/25; one symbol per assay
Description: +++ was assigned if the peptide tested gave >50% change in cpm in a dose dependent fashion. In addition to the MLR, these 34 peptides were also evaluated in a CTLA-4Ig/B7 binding assay in which the ability of these peptides to affect the binding of CTLA-4Ig to B7 on Cess B cells was examined by FACS analysis.
As with the MLR, a + or − was assigned to each peptide depending on its ability to effect CTLA-4Ig binding to Cess B cells; where − represents no change in binding, + represents a minor change of <10% in binding, and a ++ represents a change of >20% in binding.

B7 on Cess B cells [4] = test: cell-based or functional assay
B7 on Cess B cells [5] = test: FACS competition with CTLA-4Ig on Cess B cells; one grade per run; - no change, + <10% change, ++ >20% change

AT 199.3: resynthesis of AT 199.1 using the original protocols without change (RKCLMYPPPYYCHH; disulfide 3-12 (inferred); not fully specified (C-terminus); also: disulfide cyclisation only partial, mixed cyclic and linear population)
inhibition of the murine MLR [1]: 85% | inhibition of the human MLR ([2]; 100 μM, one MLR): 30% | effect on the human MLR in combination with CTLA-4Ig [2]: inhibited the MLR over and above CTLA-4Ig by itself

RKCLGYPPPYYCHH (not fully specified (bridges); cysteine pairing not given here) [AT 201.1]
Binding Assay (effect on CTLA-4Ig binding to Cess B cells) [3]: −, −, − | inhibition of the murine MLR [1]: 25% | effect on the human MLR in combination with CTLA-4Ig [2]: no effect | inhibition of the MLR, in words ([2]; control and linear peptides compared with AT 199): did not inhibit any of the MLRs as much as AT 199 | Human MLR (ability to inhibit lymphocyte proliferation, cpm) [2]: −, −, −

ADSQVTEV-OH [AT 124.1]
Binding Assay (effect on CTLA-4Ig binding to Cess B cells) [3]: +, − | Human MLR (ability to inhibit lymphocyte proliferation, cpm) [2]: −, −

B1: AT 199.1 (peptide)
peptide: RKCLMYPPPYYCHH
modifications: disulfide 3-12; not fully specified (C-terminus)
apparent IC50 of inhibition in the MLR (B7 on Cess B cells [4]): 50 to 100 µM | inhibition of human MLR by batch AT 199.2A at 100 µM, one MLR (B7 on Cess B cells [4]): 50% | inhibition of human MLR by batch AT 199.2A, another MLR (B7 on Cess B cells [4]): 25% | inhibition of human MLR by batch AT 199.3 at 100 µM, one MLR (B7 on Cess B cells [4]): 30% | inhibition of lymphocyte proliferation in a human MLR (AT 199, doses up to 100 µM) (B7 on Cess B cells [4]): 70% | inhibition of lymphocyte proliferation in a second human MLR (AT 199, doses up to 100 µM) (B7 on Cess B cells [4]): 30%

B2: AT 128.1 (peptide)
peptide: CRQADSQVTEC
modifications: disulfide 1-11 (inferred); not fully specified (C-terminus)
percent change in CTLA-4Ig binding to B7 on Cess B cells (FACS) (B7 on Cess B cells [5]): < 10%

B3: AT 129.1 (peptide)
peptide: CMYPPPYYRGGKC
modifications: disulfide 1-13 (inferred); not fully specified (C-terminus)
percent change in CTLA-4Ig binding to B7 on Cess B cells (FACS) (B7 on Cess B cells [5]): > 20%

B4: AT 135.1 (peptide)
peptide: CSPNQC
modifications: disulfide 1-6 (inferred); not fully specified (C-terminus)
percent change in CTLA-4Ig binding to B7 on Cess B cells (FACS) (B7 on Cess B cells [5]): > 20%

B5: AT 117.1 (peptide)
peptide: LDSAVEV-OH
percent change in CTLA-4Ig binding to B7 on Cess B cells (FACS) (B7 on Cess B cells [5]): < 10%
